Measured values: PMC9293725 (Computational and Structural Biotechnology Journal, 2022)

What was measured:
[1] = system: P. falciparum 3D7 (chloroquine-sensitive); assay: In vitro P. falciparum growth inhibition; format: cell-based; settings: Plasmodium falciparum; for EC50: 3D7, 72 h, read-out: EC50 Pf3D7; for inhibition at 5 µM: 3D7, read-out: inhibition of parasite growth
[2] = system: P. falciparum Dd2 (multidrug-resistant); assay: In vitro P. falciparum growth inhibition; format: cell-based; settings: Plasmodium falciparum, DD2, 72 h, read-out: EC50 PfDd2
[3] = molecular target: PfCDPK1; settings: read-out: KD PfCDPK1; cited from earlier work
[4] = cited from earlier work
[5] = Cytotoxicity, MTT reduction method, HepG2; format: cell-based; settings: human, HepG2 cells
[6] = Cytotoxicity, MTT reduction method, COS-7; format: cell-based; settings: monkey, COS-7 cells

Compound | EC50 [1] [µM] | inhibition at 5 µM [1] [%] | EC50 [2] [µM] | also measured
COc1ccc(-c2c(C)nn3c(NCCN4CCOCC4)cc(C)nc23)cc1OC [(6), 3-(3,4-dimethoxyphenyl)-2,5-dimethyl-N-(2-morpholin-4-ylethyl)pyrazolo[1,5-a]pyrimidin-7-amine] | 13.8 ± 3.8 | > 30 | 17.9 ± 5.3 | –
Cc1cn(-c2cc(NC(=O)c3ccc(C)c(Nc4nccc(-c5cccnc5)n4)c3)cc(C(F)(F)F)c2)cn1 [Nilotinib] | – | – | – | Kd [3]: 0.79 µM
CCN(CC)CCCC(C)Nc1ccnc2cc(Cl)ccc12 (stereo not drawn) [Chloroquine, reference compound] | 0.009 | – | 0.057 | –
CS(=O)(=O)c1ccc(-c2cnc(N)c(-c3ccc(C(F)(F)F)nc3)c2)cc1 [MMV390048] | – | – | – | solubility (in words) [4]: poor solubility
O=C1Nc2ccccc2C1=Cc1ccc[nH]1 [(3), 3-(1H-pyrrol-2-ylmethylidene)-1H-indol-2-one] | 10.3 ± 1.3 | > 30 | 9.8 ± 1.1 | CC50 at 72 h [5]: 13.5 ± 7.6 µM; CC50 at 72 h [6]: 32.8 ± 10.8 µM
